Test results from US9546144B2, “Bifunctional compounds” (University of Pittsburgh—of the Commonwealth System of …, priority 2011, dated 2017).

System: fibrosis associated gene transcripts in lung
Assay: RT-PCR of gene transcripts in lungs of 20 Gy thoracic irradiated mice
Assay type: in vivo, mouse
Conditions: 100 μM in drinking water continuously from day 80 after 20 Gy
Description: FIGS. 20A-20D. MMS350 decreases levels of irradiation induced endothelial and alveolar cell specific RNA levels. Endothelial and alveolar cells were isolated from the lungs of irradiated control or MMS350 treated mice at days 0, 29, 150, and 200 after 20 Gy thoracic irradiation. […] RNA was isolated and RT-PCR was performed for gene expression for: FIG. 20A oxidative stress induced promoters; FIG. 20B endothelial and alveolar cell markers; FIG. 20C fibrosis associated genes; and FIG. 20D endothelial cell markers. […]
FIGS. 21A-21C. […] Expression of BD1, BD2, BD3, and BRDT was determined.
Measurement of Levels of Gene Transcripts for Irradiation Inducible Promoters, Growth Factors, Inflammatory Cytokines, Adhesion Molecules microRNA, and Bromodomain Epigenetic Reader Proteins by RT-PCR
RNA was extracted from mouse lung or purified cell populations using the TRIzol reagent (Invitrogen, Carlsbad, Calif.) following the manufacturer's instructions, quantified using a spectrophotometer, and stored at −80° C. […]
Data for each gene were normalized by calculating the differences (ΔCt) from the Ct-GUSB and Ct-Target genes. Subsequently, the relative increase or decrease in expression was calculated by comparing the reference gene with the target gene (ΔΔCt) and using the formula for relative expression (=2^ΔΔCt). […]

CC1(C[S+]([O-])CC2(C)COC2)COC1 [compound 3, 3,3′-Sulfinylbis(methylene)bis(3-methyloxetane)]
fibrosis phase mRNA expression: decreased expression of fibrosis phase mRNA expression
